Source: the NIST ThermoML archive (doi:10.1021/je400122k)

Conditions: Liquid; for speed of sound: Pulse-echo method; for mass density: Vibrating tube method

CCCCCCCCCCCCCC(=O)OCC [ethyl tetradecanoate]
Conditions	mass density, 293.15 K [kg/m3]	mass density, 303.15 K [kg/m3]	mass density, 313.15 K [kg/m3]	mass density, 323.15 K [kg/m3]	mass density, 333.15 K [kg/m3]	mass density, 343.15 K [kg/m3]	speed of sound, 293.15 K [m/s]	speed of sound, 303.15 K [m/s]	speed of sound, 323.15 K [m/s]	speed of sound, 343.15 K [m/s]
100 kPa	–	–	–	–	–	–	1360.6	1321.8	1251.8	1184.7
101.3 kPa	861	853.3	845.6	838.5	830.6	823.2	–	–	–	–
10000 kPa	867.5	860.2	852.7	845.4	838	831.1	1408	1370.9	1304.5	1241.3
20000 kPa	873.2	866.2	859	852	844.9	838.6	1453.3	1416.8	1353.4	1293
30000 kPa	878.7	871.9	864.9	858.2	851.3	845.2	1494.5	1460.6	1398.6	1341.9
40000 kPa	883.8	877.3	870.5	863.9	857.2	851.3	1533.5	1500.8	1441.1	1386.7
50000 kPa	888.7	882.2	875.7	869.2	862.9	857.1	1568.2	1539.9	1482.4	1428.8
60000 kPa	893.6	887	880.8	874.7	868.2	862.5	–	–	1519.7	1468.1
70000 kPa	–	891.7	885.5	879.8	874	867.7	–	–	1555.8	1506.4
80000 kPa	–	896	890.8	884.5	878	872.8	–	–	1590.8	1541.9
90000 kPa	–	900.3	894.9	888.9	883.4	–	–	–	1624.6	–
100000 kPa	–	904.4	899.1	893.1	888	–	–	–	1655.7	–
